In US20180216113A1, “METHODS FOR REDUCING PROTEOTOXICITY” (priority 2015, published 2018):

Legend:
hsp-16.2p::GFP = hsp-16.2p::GFP reporter induction (cytosolic HSR / MCSR); type: in vivo, C. elegans; settings: for hsp-6 RNAi-induced MCSR (hsp-16.2p::GFP): ceramide fed worms, 100μg/ml, 48 hours, on hsp-6 RNAi
Experimental: (§1) Bacterial feeding of RNAi experiments was conducted during adulthood to exclude target genes' function during developmental stages. Synchronized eggs were harvested by bleaching and nematodes were grown on plates with E. coli OP50 until they reached early adulthood before they were transferred to RNAi plates. Day 1 adult worms were then grown on the RNAi plates with E. coli HT115 that carried the RNAi construct for 3 days at 20° C. Worms were imaged using a fluorescent microscope for green fluorescent protein (GFP) induction or applied to COPAS Biosorter (Union Biometrica) to quantify the level of GFP induction. The temperature-sensitive sterile strains were grown at 15° C. until they were gravid adults. Then, the cohorts were shifted to 25° C. Day 1 adult worms were transferred to RNAi plates for 2 days before images were taken. For the double RNAi treatment, E. coli carrying the indicated RNAi constructs are mixed 1:1 ratio.
(§2) Lipids, Inc. Lyophilized lipids were dissolved in Methanol with sonication. Ceramides were diluted to 100μg/ml and spotted on top of the OP50 plates or RNAi plates. Worms were transferred to Ceramide-spotted plates at L4 stage and the images were taken after 48 hours. Cardiolipin was fed to bacteria for 2-4 hours (OP50 or RNAi construct-carrying HT115) with final concentration of 100μg/ml. Then the bacteria were spotted on plates before transferring the worms. L4 worms were then transferred to the cardiolipin spotted plates and images were taken after 48 hours.
Worms were grown up to day 1 adults and underwent heat shock at 34° C. for 2 hours, then recovered at 20° C. for overnight before taking images. For the Nile Red Staining experiment, worms were recovered for 48 hours.
(§3) Perhexiline (Sigma) powder was dissolved in dimethylsulfoxide (DMSO) (100 mM). The stock was diluted to 1 mM and 100 μl was spotted on the E. coli OP50 plates or HT115 RNAi plates and dried before transferring the worms. Worms were transferred to new perhexiline plates every other day for three to four days until harvested for following experiment. […]

hsp-6p::GFP = hsp-6p::GFP / hsp-60p::GFP reporter induction (UPRmt); type: in vivo, C. elegans; settings: for UPRmt caused by cco-1 knockdown: ceramide fed reporter worms
Experimental: as §1, §2
(§4) Perhexiline (Sigma) powder was dissolved in dimethylsulfoxide (DMSO) (100 mM). The stock was diluted to 1 mM and 100 μl was spotted on the E. coli OP50 plates or HT115 RNAi plates and dried before transferring the worms. Worms were transferred to new perhexiline plates every other day for three to four days until harvested for following experiment. For the perhexiline treatment with multiple numbers of RNAi (e.g., FIG. 4C), worms were transferred to the S-media containing HT115 RNAi bacteria, 100 μM of perhexiline and 1 mM of IPTG in a 96-well plate for 48 hrs.

C. elegans [1] = assay: Triglyceride quantification in worms; type: in vivo; settings: perhexiline treated worms
Experimental: (§5) To quantify triglyceride content, a Triglyceride quantification kit (Bio Vision) was used according to the manufacturer's protocol. Briefly, worms were harvested from plates and washed with M9 three times. Worms were homogenized with 5% NP-40 in water using a glass dounce homogenizer to extract mostly the intestinal tissues by checking the lysates under a dissecting microscope. Worms looked like empty shells once the intestinal tissues were extracted out. The samples were heated slowly at 90° C. for 5 minutes and cooled down to room temperature. Heating was repeated once more prior to centrifugation of the samples for 2 minutes to bring down debris. Supernatant was removed and mixed with enzymes provided in the kit according to the manufacturer's manual. Measurement was done using microplate reader M1000 (TECAN) at Ex/Em=535/590 nm. Calculations were done after subtracting 0 standard readings as a background.
Sample Triglyceride control (C)=B/V×D nmol/μl or mM
as §3

[2] = test system: human primary fibroblasts; assay: Triglyceride content of human primary fibroblasts; type: cell-based; settings: human primary fibroblasts (GFP expressing cells) after perhexiline treatment
Experimental: as §5
For the mammalian cell culture samples, cells were washed with cold PBS and homogenized with 5% NP-40 in water using a syringe with 22 G needle, followed by the procedure shown above. All experiments were done with three biological repeats.
For the cell culture experiments, cells were grown to 90% confluent and washed with PBS. Indicated concentrations of perhexiline were diluted in the cell growth media with serum and replaced in cell culture dishes. […]

[3] = test system: polyglutamine repeats in Huntingtin exon 1 (Q78); assay: Filter trap assay of polyQ aggregates in human primary fibroblasts; type: cell-based; settings: perhexiline 400 nM, 48 hours
Experimental: The following siRNAs were tested for depleting the indicated genes in the human primary fibroblasts or HEK cells: hspa9 siRNA (#1 and #2), accl siRNA (#1 and #2), fas siRNA (#1 and #2) (Ambion). Scrambled siRNA with no known mammalian homology (non-targeting siRNA #1 (Ambion) was used as negative control. Double siRNA treatment was performed by mixing two different siRNAs indicated at 1:1 ratio. Cells were transfected with the siRNAs using JetPrime according to the manufacturer's manual and then harvested after 48 h. Control vector-transfected cells were used as controls for all the experiments.
100μg of protein samples were applied on to cellulose acetate membrane with 0.22 μm pore size (Schlechtes+Schule), assembled in vacuum slot blotter (Bio-Dot, Bio-Rad). Membrane was washed with 0.2% SDS five times on the blotter and subjected to antibody incubation for detecting aggregated protein retained on the membrane. Briefly, membrane was incubated with anti-GFP antibody (1:3000 dilution in 5% milk in PBS, Roche) overnight in a cold room. Membrane was washed with PBST (PBST with 0.05% Tween-20) for three times, then incubated with secondary antibody (donkey anti-mouse antibody conjugated with HRP, 1:5000 dilution in 5% milk in PBS, Jackson Immuno Research). […]

cytosolic HSP70 = assay: Western blotting of cytosolic HSP70 in human primary fibroblasts; type: cell-based; settings: human primary fibroblasts (GFP expressing cells)
Experimental: The following siRNAs were tested for depleting the indicated genes in the human primary fibroblasts or HEK cells: hspa9 siRNA (#1 and #2), accl siRNA (#1 and #2), fas siRNA (#1 and #2) (Ambion). Scrambled siRNA with no known mammalian homology (non-targeting siRNA #1 (Ambion) was used as negative control. Double siRNA treatment was performed by mixing two different siRNAs indicated at 1:1 ratio. Cells were transfected with the siRNAs using JetPrime according to the manufacturer's manual and then harvested after 48 h. Control vector-transfected cells were used as controls for all the experiments. For SDS-PAGE, 20-40μg of protein samples were loaded on 4-12% bis-tris SDS gel (Invitrogen). The gel was transferred to nitrocellulose membrane (GE) using XCell II blot module (Invitrogen). Then, membranes were incubated with antibodies and exposed to film as described above. mtHSP70 (Abcam), α-Tubulin (Sigma), GFP (Roche), and cytosolic HSP70 (HSP70/HSP72, Enzo life) were used to probe the membrane. The western blot bands' intensity was measured using ImageJ software. For the cell culture experiments, cells were grown to 90% confluent and washed with PBS. Indicated concentrations of perhexiline were diluted in the cell growth media with serum and replaced in cell culture dishes. After 48 hours, cells were washed with PBS and harvested for following experiments.

C. elegans [4] = assay: Oxygen consumption rate of whole worms (Seahorse); type: in vivo; settings: perhexiline treatment of hsp-6 RNAi animals
Experimental: Oxygen consumption of whole worms was measured using the Seahorse XF96 (Seahorse Bioscience). Worms were washed off from plates with M9 to remove residual bacteria. Then, 50 worms (10 worms/well/100 μl) were transferred to the microplate. 50 μl of M9 was added to the wells and the oxygen consumption rate was measured. All experiments were repeated at least three times.

[5] = test system: aggregated PolyQ proteins (Q35::YFP); assay: Filter trap assay of aggregated PolyQ proteins in worms; type: in vivo, C. elegans; settings: AM140 worms
Experimental: 100μg of protein samples were applied on to cellulose acetate membrane with 0.22 μm pore size (Schlechtes+Schule), assembled in vacuum slot blotter (Bio-Dot, Bio-Rad). Membrane was washed with 0.2% SDS five times on the blotter and subjected to antibody incubation for detecting aggregated protein retained on the membrane. Briefly, membrane was incubated with anti-GFP antibody (1:3000 dilution in 5% milk in PBS, Roche) overnight in a cold room. Membrane was washed with PBST (PBST with 0.05% Tween-20) for three times, then incubated with secondary antibody (donkey anti-mouse antibody conjugated with HRP, 1:5000 dilution in 5% milk in PBS, Jackson Immuno Research). Membranes were washed with PBST three times and exposed to film after applying ECL solutions (Pierce) to visualize the protein bands.
as §4

| Structure (SMILES) | hsp-6 RNAi-induced MCSR (hsp-16.2p::GFP) (hsp-16.2p::GFP) | UPRmt caused by cco-1 knockdown (hsp-6p::GFP) | fat accumulation (triglyceride content) (C. elegans [1]) | triglyceride levels [2] | polyglutamine protein aggregation [3] | expression of cytosolic HSP70 (cytosolic HSP70) | overall oxygen consumption rate (C. elegans [4]) | cytosolic hsp-16.2 expression (hsp-16.2p::GFP; perhexiline treated hsp-16.2p::GFP;CF512 reporter worms) | levels of aggregated PolyQ proteins [5] | induction of UPRmt (hsp-6p::GFP, hsp-60p::GFP) (hsp-6p::GFP; perhexiline treated reporter worms) |
| --- | --- | --- | --- | --- | --- | --- | --- | --- | --- | --- |
| CCCCCCCCCCCCC/C=C/[C@@H](O)[C@H](CO)NC(=O)CCCCCCCCCCCCCCCCCCC [C20 ceramide] | partially block | did not affect | – | – | – | – | – | – | – | – |
| CCCCCCCCCCCCC/C=C/[C@@H](O)[C@H](CO)NC(=O)CCCCCCCCCCCCCCCCCCCCC [C22 ceramide] | completely inhibited | did not affect | – | – | – | – | – | – | – | – |
| C1CCC(C(CC2CCCCN2)C2CCCCC2)CC1 (stereo not drawn) [perhexiline, 2-(2,2-dicyclohexylethyl)piperidine] | – | – | increased | increased | reduced | induce expression | did not further reduce | specifically induced | decreased levels | moderately induced |
